Measurements reported in patent US6694171B1, “X-ray imaging of tumors with dextran carrier of platinum compounds” (Yeda Research and Development, priority 1997, dated 2004).

Test: Interaction between CDDP and ADH or hydrazine by OPDA colour reaction (FIGS. 4A-4B)
Assay type: physicochemical
Settings: 6 μg CDDP, OPDA 4 mg/ml
Description: The absorbance at 703 nm was determined (FIG. 4A).

leveling-off ratio ligand:CDDP: 20
SMILES: NNC(=O)CCCCC(=O)NN [ADH, adipic acid dihydrazide]
